Reference: the supplement of paper PMC10307832

Assays:
Experiment in all cases: relative viability (nuclei count vs DMSO), 5 days (fraction); higher = more cells survive
Bortezomib + Lapatinib = compound: CC(C)C[C@H](NC(=O)[C@H](Cc1ccccc1)NC(=O)c1cnccn1)B(O)O [Bortezomib] + CS(=O)(=O)CCNCc1ccc(-c2ccc3ncnc(Nc4ccc(OCc5cccc(F)c5)c(Cl)c4)c3c2)o1 [Lapatinib] (partner 2 µM)
Method in brief: (§1)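 Relative viability was taken as the ratio of nuclei in treated wells to nuclei in vehicle wells. Lung cancer cell lines in 1536-well plates received compounds by pin tool one day after seeding, either one drug alone or a fixed anchor-drug dose plus five library-drug doses (not always all listed) in √10 steps. Nuclei were counted on 4× images after 5 days of treatment, and values are medians of duplicate plates.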

Bortezomib + Dasatinib = compound: CC(C)C[C@H](NC(=O)[C@H](Cc1ccccc1)NC(=O)c1cnccn1)B(O)O [Bortezomib] + Cc1nc(Nc2ncc(C(=O)Nc3c(C)cccc3Cl)s2)cc(N2CCN(CCO)CC2)n1 [Dasatinib] (partner 0.075 µM)
Method in brief: as §1

[1] = compound: CC1=CC(=NN1)NC2=CC(=NC(=N2)/C=C/C3=CC=CC=C3)N4CCN(CC4)C + O=C(CCCCCCC(=O)Nc1ccccc1)NO [Vorinostat] (partner 1 µM)
Method in brief: as §1

Obatoclax + Lapatinib = compound: COC1=CC(c2cc3ccccc3[nH]2)=N/C1=C\c1[nH]c(C)cc1C [Obatoclax] + CS(=O)(=O)CCNCc1ccc(-c2ccc3ncnc(Nc4ccc(OCc5cccc(F)c5)c(Cl)c4)c3c2)o1 [Lapatinib] (partner 2 µM)
Method in brief: as §1

| Cell Line | relative viability (Bortezomib + Lapatinib; first compound 0.0002 µM) | relative viability (Bortezomib + Lapatinib; first compound 0.000632 µM) | relative viability (Bortezomib + Lapatinib; first compound 0.002 µM) | relative viability (Bortezomib + Lapatinib; first compound 0.006325 µM) | relative viability (Bortezomib + Lapatinib; first compound 0.02 µM) | relative viability (Bortezomib + Dasatinib; first compound 0.0002 µM) | relative viability (Bortezomib + Dasatinib; first compound 0.000632 µM) | relative viability (Bortezomib + Dasatinib; first compound 0.002 µM) | relative viability (Bortezomib + Dasatinib; first compound 0.006325 µM) | relative viability (Bortezomib + Dasatinib; first compound 0.02 µM) | relative viability ([1]; first compound 0.08 µM) | relative viability ([1]; first compound 0.253 µM) | relative viability ([1]; first compound 0.8 µM) | relative viability ([1]; first compound 2.53 µM) | relative viability ([1]; first compound 8 µM) | relative viability (Obatoclax + Lapatinib; first compound 0.01 µM) | relative viability (Obatoclax + Lapatinib; first compound 0.03162 µM) | relative viability (Obatoclax + Lapatinib; first compound 0.1 µM) | relative viability (Obatoclax + Lapatinib; first compound 0.3162 µM) | relative viability (Obatoclax + Lapatinib; first compound 1 µM) |
| --- | --- | --- | --- | --- | --- | --- | --- | --- | --- | --- | --- | --- | --- | --- | --- | --- | --- | --- | --- | --- |
| HCC-366 | 0.861 | 1.01 | 1.03 | 0.875 | 0.0176 | 0.664 | 0.474 | 0.726 | 0.481 | 0.0296 | 0.38 | 0.505 | 0.136 | 0.0276 | 0.0214 | 1.02 | 1.05 | 0.921 | 0.636 | 0.379 |
| NCI-H2405 | 0.817 |  | 1.01 | 0.112 | 0.121 | 0.18 | 0.188 | 0.288 | 0.16 | 0.144 | 1.05 | 1.1 | 1.02 | 0.406 | 0.142 | 1.05 | 1.26 |  | 1.08 | 1.13 |
| Calu-6 | 0.961 | 1.03 | 1.02 | 0.138 | 0.109 |  |  |  |  |  |  |  |  |  |  | 1.03 | 1.09 | 1.04 | 0.842 | 0.244 |
| 201T | 1.01 | 0.99 | 1.06 | 1.05 | 0.512 | 0.571 | 0.607 | 0.536 | 0.589 | 0.283 | 1 | 1.13 | 0.997 | 0.879 | 0.449 | 1.08 | 0.789 | 0.94 | 1.01 | 0.97 |
| CAL-12T | 0.683 | 0.617 | 0.561 | 0.246 | 0.201 | 0.538 | 0.347 | 0.53 | 0.119 | 0.0844 | 0.686 | 0.573 | 0.639 | 0.428 | 0.126 | 0.609 | 0.733 | 0.755 | 0.392 | 0.287 |
| HCC-44 | 0.977 | 1.02 | 0.953 | 0.658 | 0.118 |  |  |  |  |  | 1.08 | 1.13 | 1.05 | 0.904 | 0.36 | 1.08 | 0.891 | 0.955 | 0.876 | 0.37 |
| NCI-H1944 | 0.883 | 0.774 | 0.929 | 0.809 | 0.328 | 0.225 | 0.212 | 0.222 | 0.214 | 0.137 | 0.581 | 0.565 | 0.394 | 0.286 | 0.16 | 0.904 | 0.659 | 0.791 | 0.794 | 0.787 |
| SK-MES-1 | 0.487 | 0.45 | 0.506 | 0.423 | 0.214 | 0.375 | 0.351 | 0.35 | 0.124 | 0.125 | 1.09 | 1.25 | 0.985 | 0.191 | 0.165 | 0.457 | 0.458 | 0.509 | 0.519 | 0.519 |
| NCI-H2087 | 0.897 | 0.951 | 0.541 | 0.114 | 0.0853 | 0.684 | 0.819 | 0.458 | 0.0422 | 0.037 | 0.697 | 0.954 | 0.72 | 0.324 | 0.141 | 0.954 | 0.901 | 0.776 | 0.623 | 0.304 |
